In the NIST ThermoML archive (doi:10.1021/acs.jced.9b00752):

Test: mn = molality of the nth substance listed, in mol/kg
Settings: 100 kPa, Liquid, Vibrating tube method

N[C@@H](Cc1c[nH]c2ccccc12)C(=O)O [L-tryptophan] + O
mass density [kg/m3]
Settings | m1 = 0.0035 | m1 = 0.009 | m1 = 0.0179 | m1 = 0.0306 | m1 = 0.0352 | m1 = 0.0429 | m1 = 0.0536 | m1 = 0.0595 | m1 = 0.0659 | m1 = 0.0769
273.65 K | 1000.09 | 1000.46 | 1001.04 | 1001.86 | 1002.16 | 1002.66 | 1003.36 | 1003.74 | 1004.14 | 1004.85
274.15 K | 1000.12 | 1000.48 | 1001.06 | 1001.88 | 1002.18 | 1002.68 | 1003.38 | 1003.75 | 1004.16 | 1004.87
274.65 K | 1000.14 | 1000.5 | 1001.08 | 1001.9 | 1002.2 | 1002.7 | 1003.39 | 1003.77 | 1004.17 | 1004.88
275.15 K | 1000.15 | 1000.52 | 1001.09 | 1001.91 | 1002.22 | 1002.71 | 1003.4 | 1003.78 | 1004.18 | 1004.88
275.65 K | 1000.17 | 1000.53 | 1001.11 | 1001.92 | 1002.23 | 1002.72 | 1003.41 | 1003.79 | 1004.19 | 1004.89
276.15 K | 1000.18 | 1000.54 | 1001.11 | 1001.93 | 1002.23 | 1002.73 | 1003.41 | 1003.79 | 1004.19 | 1004.89
276.65 K | 1000.18 | 1000.54 | 1001.12 | 1001.93 | 1002.23 | 1002.72 | 1003.41 | 1003.78 | 1004.19 | 1004.88
277.15 K | 1000.18 | 1000.55 | 1001.12 | 1001.93 | 1002.23 | 1002.72 | 1003.41 | 1003.78 | 1004.18 | 1004.88
277.65 K | 1000.18 | 1000.54 | 1001.11 | 1001.92 | 1002.22 | 1002.72 | 1003.4 | 1003.77 | 1004.17 | 1004.87
278.15 K | 1000.17 | 1000.53 | 1001.1 | 1001.91 | 1002.21 | 1002.7 | 1003.39 | 1003.76 | 1004.16 | 1004.85
278.65 K | 1000.16 | 1000.52 | 1001.09 | 1001.9 | 1002.2 | 1002.69 | 1003.37 | 1003.74 | 1004.14 | 1004.83
279.15 K | 1000.15 | 1000.51 | 1001.08 | 1001.88 | 1002.18 | 1002.67 | 1003.35 | 1003.72 | 1004.12 | 1004.81
279.65 K | 1000.13 | 1000.49 | 1001.06 | 1001.86 | 1002.16 | 1002.65 | 1003.33 | 1003.7 | 1004.09 | 1004.78
280.15 K | 1000.11 | 1000.47 | 1001.03 | 1001.84 | 1002.13 | 1002.62 | 1003.3 | 1003.67 | 1004.07 | 1004.75
280.65 K | 1000.09 | 1000.44 | 1001.01 | 1001.81 | 1002.11 | 1002.59 | 1003.27 | 1003.64 | 1004.03 | 1004.72
281.15 K | 1000.06 | 1000.41 | 1000.98 | 1001.78 | 1002.07 | 1002.56 | 1003.23 | 1003.6 | 1004 | 1004.68
281.65 K | 1000.02 | 1000.38 | 1000.94 | 1001.74 | 1002.04 | 1002.52 | 1003.2 | 1003.56 | 1003.96 | 1004.64
282.15 K | 999.99 | 1000.34 | 1000.9 | 1001.71 | 1002 | 1002.48 | 1003.15 | 1003.52 | 1003.92 | 1004.6
282.65 K | 999.95 | 1000.3 | 1000.87 | 1001.66 | 1001.96 | 1002.44 | 1003.11 | 1003.48 | 1003.87 | 1004.56
283.15 K | 999.908 | 1000.26 | 1000.82 | 1001.62 | 1001.91 | 1002.39 | 1003.06 | 1003.43 | 1003.82 | 1004.5
